Assay results as given in US20220304950A1, “[…] THE TREATMENT OF PATIENTS WITH MAJOR DEPRESSIVE DISORDER, INCLUDING SUICIDALITY” (JANSSEN PHARMACEUTICALS, INC., priority 2019, published 2022).

Test system: adult patients with MDD assessed to be at imminent risk for suicide
Test: Adverse events (TEAEs, SAEs), Study 1 (Example 4)
Experimental: This is a randomized, double-blind, placebo-controlled, multicenter study to evaluate the efficacy of intranasal esketamine 84 mg compared with intranasal placebo in addition to comprehensive standard of care in reducing the symptoms of MDD, including suicidal ideation, in adult male and female patients who were assessed to be at imminent risk for suicide.
The study consisted of a screening evaluation performed within 48 hours prior to the Day 1 intranasal dose, immediately followed by a 25-day double-blind treatment phase (Day 1 to 25), and a 65-day follow-up phase (Day 26 to Day 90). The total study duration for each subject was approximately 13 weeks.
The study consisted of a screening evaluation performed within 24 to 48 hours prior to the Day 1 dose, immediately followed by a 25-day double-blind treatment phase (Day 1 to 25) with twice-weekly dosing sessions, and a 9-week follow up phase (Day 26 to Day 90). All participants received comprehensive SOC, including in-patient psychiatric hospitalization and the initiation or optimization of standard antidepressant medication (determined by the treating physician based on clinical judgment and practice guidelines).

[1] = Esk 84 mg + SOC, double-blind phase
[2] = Esk 84 mg + SOC, double-blind phase, listed as ESK
[3] = Esk 84 mg + SOC, double-blind phase, listed as Esk
[4] = Esk 84 mg + SOC, follow-up phase

SMILES: CN[C@]1(c2ccccc2Cl)CCCCC1=O [esketamine, (S)-2-(2-chlorophenyl)-2-(methylamino)cyclohexanone]
- SAEs: depression-related events, number (ESK+SOC, follow-up phase): 3
- SAEs: suicidal ideation-related events, number (ESK+SOC, follow-up phase): 7
- Serious TEAE Aggression, subjects n [1]: 0
- Serious TEAE Depression suicidal, subjects % [1]: (1.8%)
- Serious TEAE Depression, subjects % [1]: (0.9%)
- Serious TEAE Depression, subjects n [1]: 1
- Serious TEAE Diabetic ketoacidosis, subjects % [1]: (0.9%)
- Serious TEAE Diabetic ketoacidosis, subjects n [1]: 1
- Serious TEAE Hepatobiliary disorders, subjects n [1]: 0
- Serious TEAE Hypertransaminasaemia, subjects n [1]: 0
- Serious TEAE Metabolism and nutrition disorders, subjects % [1]: (0.9%)
- Serious TEAE Metabolism and nutrition disorders, subjects n [1]: 1
- Serious TEAE Psychiatric disorders, subjects n [1]: 3
- Serious TEAE Suicidal ideation, subjects n [1]: 0
- Serious TEAE Suicide attempt, subjects % [1]: (0.9%)
- Serious TEAE Suicide attempt, subjects n [1]: 1
- Subjects with 1 or more TEAEs, % [1]: 88.5%
- Subjects with related TEAEs, % [1]: (79.6%)
- Subjects with related severe TEAEs, % [1]: (6.2%)
- Subjects with serious TEAEs, % [1]: 3.5%
- TEAE Anxiety, subjects % [1]: (5.3%)
- TEAE Anxiety, subjects n [1]: 6
- TEAE Blood pressure increased, subjects % [1]: (16.8%)
- TEAE Blood pressure increased, subjects n [1]: 19
- TEAE Constipation, subjects % [1]: (13.3%)
- TEAE Constipation, subjects n [1]: 15
- TEAE Dissociation, subjects % [1]: 29.2%
- TEAE Dissociation, subjects n [1]: 33
- TEAE Dizziness postural, subjects % [1]: (5.3%)
- TEAE Dizziness postural, subjects n [1]: 6
- TEAE Dizziness, subjects % [1]: 35.4%
- TEAE Dizziness, subjects n [1]: 40
- TEAE Dysgeusia, subjects n [1]: 16
- TEAE Ear and labyrinth disorders, subjects % [1]: (8.0%)
- TEAE Ear and labyrinth disorders, subjects n [1]: 9
- TEAE Eye disorders, subjects % [1]: (11.5%)
- TEAE Eye disorders, subjects n [1]: 13
- TEAE Gastrointestinal disorders, subjects % [1]: (38.1%)
- TEAE Gastrointestinal disorders, subjects n [1]: 43
- TEAE Headache, subjects n [1]: 21
- TEAE Hypoaesthesia, subjects % [1]: (7.1%)
- TEAE Hypoaesthesia, subjects n [1]: 8
- TEAE Insomnia, subjects % [1]: (6.2%)
- TEAE Insomnia, subjects n [1]: 7
- TEAE Investigations, subjects % [1]: (24.8%)
- TEAE Investigations, subjects n [1]: 28
- TEAE Nausea, subjects % [1]: 20.4%
- TEAE Nausea, subjects n [1]: 23
- TEAE Nervous system disorders, subjects % [1]: (68.1%)
- TEAE Nervous system disorders, subjects n [1]: 77
- TEAE Psychiatric disorders, subjects % [1]: (45.1%)
- TEAE Psychiatric disorders, subjects n [1]: 51
- TEAE Sedation, subjects % [1]: (6.2%)
- TEAE Sedation, subjects n [1]: 7
- TEAE Somnolence, subjects n [1]: 21
- TEAE Vertigo, subjects % [1]: (6.2%)
- TEAE Vertigo, subjects n [1]: 7
- TEAE Vision blurred, subjects % [1]: (8.8%)
- TEAE Vision blurred, subjects n [1]: 10
- TEAE Vomiting, subjects % [1]: (7.1%)
- TEAE Vomiting, subjects n [1]: 8
- TEAE dysgeusia, subjects % [1]: (14.2%)
- TEAE headache, subjects % [1]: (18.6%)
- TEAE leading to discontinuation: Aggression, subjects n [1]: 0
- TEAE leading to discontinuation: Atrioventricular block first degree, subjects n [1]: 0
- TEAE leading to discontinuation: Blood pressure diastolic increased, subjects n [1]: 0
- TEAE leading to discontinuation: Blood pressure increased, subjects % [1]: 0.9%
- TEAE leading to discontinuation: Blood pressure increased, subjects n [1]: 1
- TEAE leading to discontinuation: Cardiac disorders, subjects n [1]: 0
- TEAE leading to discontinuation: Confusional state, subjects % [1]: 0.9%
- TEAE leading to discontinuation: Confusional state, subjects n [1]: 1
- TEAE leading to discontinuation: Dissociation, subjects % [1]: 0.9%
- TEAE leading to discontinuation: Dissociation, subjects n [1]: 1
- TEAE leading to discontinuation: Dizziness, subjects % [1]: 0.9%
- TEAE leading to discontinuation: Dizziness, subjects n [1]: 1
- TEAE leading to discontinuation: Hallucination, visual, subjects % [1]: 0.9%
- TEAE leading to discontinuation: Hallucination, visual, subjects n [1]: 1
- TEAE leading to discontinuation: Headache, subjects % [1]: 0.9%
- TEAE leading to discontinuation: Headache, subjects n [1]: 1
- TEAE leading to discontinuation: Hepatobiliary disorders, subjects n [1]: 0
- TEAE leading to discontinuation: Hypertransaminasaemia, subjects n [1]: 0
- TEAE leading to discontinuation: Hypoaesthesia, subjects % [1]: 0.9%
- TEAE leading to discontinuation: Hypoaesthesia, subjects n [1]: 1
- TEAE leading to discontinuation: Investigations, subjects % [1]: 0.9%
- TEAE leading to discontinuation: Investigations, subjects n [1]: 1
- TEAE leading to discontinuation: Nervous system disorders, subjects % [1]: 2.7%
- TEAE leading to discontinuation: Nervous system disorders, subjects n [1]: 3
- TEAE leading to discontinuation: Pharyngeal hypoaesthesia, subjects % [1]: 0.9%
- TEAE leading to discontinuation: Pharyngeal hypoaesthesia, subjects n [1]: 1
- TEAE leading to discontinuation: Psychiatric disorders, subjects % [1]: 2.7%
- TEAE leading to discontinuation: Psychiatric disorders, subjects n [1]: 3
- TEAE leading to discontinuation: Respiratory, thoracic and mediastinal disorders, subjects % [1]: 0.9%
- TEAE leading to discontinuation: Respiratory, thoracic and mediastinal disorders, subjects n [1]: 1
- TEAE leading to discontinuation: Sedation, subjects % [1]: 0.9%
- TEAE leading to discontinuation: Sedation, subjects n [1]: 1
- TEAE leading to discontinuation: Somnolence, subjects % [1]: 0.9%
- TEAE leading to discontinuation: Somnolence, subjects n [1]: 1
- TEAE leading to discontinuation: Suicidal ideation, subjects n [1]: 0
- TEAE somnolence, subjects % [1]: (18.6%)
- Serious TEAE Depression suicidal, subjects n [2]: 1
- Serious TEAE Psychiatric disorders, subjects % [2]: < 5%
- Subjects with severe TEAEs, % [2]: 8.8%
- Serious TEAE Depression suicidal, subjects n [3]: 2
- Serious TEAE Psychiatric disorders, subjects % [3]: (2.7%)
- Subjects with 1 or more TEAEs, % [3]: (88.5%)
- Subjects with serious TEAEs, % [3]: (3.5%)
- Subjects with severe TEAEs, % [3]: (8.8%)
- TEAE Dissociation, subjects % [3]: (29.2%)
- TEAE Dizziness, subjects % [3]: (35.4%)
- TEAE Nausea, subjects % [3]: (20.4%)
- Subjects with TEAEs leading to discontinuation of study agent, % (Esk 84 mg + SOC, double-blind phase, safety set): 4.4%
- AE Anxiety, subjects % [4]: (3.0%)
- AE Anxiety, subjects n [4]: 3
- AE Depression, subjects % [4]: (8.9%)
- AE Depression, subjects n [4]: 9
- AE Headache, subjects % [4]: (5.9%)
- AE Headache, subjects n [4]: 6
- AE Nervous system disorders, subjects % [4]: (11.9%)
- AE Nervous system disorders, subjects n [4]: 12
- AE Psychiatric disorders, subjects % [4]: (28.7%)
- AE Psychiatric disorders, subjects n [4]: 29
- AE Suicidal ideation, subjects % [4]: (5.0%)
- AE Suicidal ideation, subjects n [4]: 5
- SAE Completed suicide, subjects % [4]: (1.0%)
- SAE Completed suicide, subjects n [4]: 1
- SAE Depression suicidal, subjects % [4]: (5.0%)
- SAE Depression suicidal, subjects n [4]: 5
- SAE Depression, subjects % [4]: (1.0%)
- SAE Depression, subjects n [4]: 1
- SAE Depressive symptom, subjects % [4]: (1.0%)
- SAE Depressive symptom, subjects n [4]: 1
- SAE Major depression, subjects % [4]: (1.0%)
- SAE Major depression, subjects n [4]: 1
- SAE Musculoskeletal and connective tissue disorders, subjects n [4]: 0
- SAE Psychiatric disorders, subjects % [4]: (12.9%)
- SAE Psychiatric disorders, subjects n [4]: 13
- SAE Rhabdomyolysis, subjects n [4]: 0
- SAE Suicidal ideation, subjects % [4]: (2.0%)
- SAE Suicidal ideation, subjects n [4]: 2
- SAE Suicide attempt, subjects % [4]: (3.0%)
- SAE Suicide attempt, subjects n [4]: 3
- Subjects with 1 or more AEs, % [4]: (48.5%)
- Subjects with AEs leading to death, % [4]: (1.0%)
- Subjects with serious AEs, % [4]: 12.9%
- Subjects with severe AEs, % [4]: (5.9%)
- Subjects with serious AEs, % (Esk 84 mg + SOC, follow-up phase, listed as Esk): (12.9%)
- Overall safety and tolerability (in words) (intranasal ESK+SOC): safe and tolerated
